“And” between values parts separate entries of the source, which are not always exact repeats. Equal entries are not always repeated.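 Briefly, cells in 96-well plates were exposed to five compound concentrations for 48 h, and endpoints were estimated by linear interpolation. Abbreviation: GI50, concentration required for 50% inhibition of growth. At the TGI there is no net growth.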
How the values were obtained:
Assay in all cases: inhibition of tumour cell growth, NCI panel, 48 h
HS 578T breast = test system: HS 578T breast
NCI-H226 lung = test system: NCI-H226 lung
UACC-257 melanoma = test system: UACC-257 melanoma
SK-MEL-2 melanoma = test system: SK-MEL-2 melanoma
T-47D breast = test system: T-47D breast
ACHN renal = test system: ACHN renal
CCRF-CEM leukemia = test system: CCRF-CEM leukemia
MDA-MB-231 breast = test system: MDA-MB-231 breast
HOP-62 NSCLC = test system: HOP-62 NSCLC
786-0 renal = test system: 786-0 renal

SMILES	GI50 (HS 578T breast) [µM]	TGI (HS 578T breast) [µM]	GI50 (NCI-H226 lung)	TGI (NCI-H226 lung)	GI50 (UACC-257 melanoma)	TGI (UACC-257 melanoma) [µM]	GI50 (SK-MEL-2 melanoma) [µM]	TGI (SK-MEL-2 melanoma)	GI50 (T-47D breast) [µM]	TGI (T-47D breast) [µM]	GI50 (ACHN renal)	TGI (ACHN renal)	GI50 (CCRF-CEM leukemia) [µM]	TGI (CCRF-CEM leukemia)	GI50 (MDA-MB-231 breast) [µM]	TGI (MDA-MB-231 breast) [µM]	GI50 (HOP-62 NSCLC) [µM]	TGI (HOP-62 NSCLC)	GI50 (786-0 renal)	TGI (786-0 renal)
COc1cccc(Cn2c(-c3nonc3NC(C)=O)nc3ccccc32)c1	1.87	7.24	5.46 µM	> 100 µM	5.71 µM	88.4	3.07	18.9 µM	6.17	> 100	8.41 µM	> 100 µM	> 100	> 100 µM	3.62	> 100	8.53	> 100 µM	10.4 µM	> 100 µM
C=CC[C@@H]1/C=C(\C)C[C@H](C)C[C@H](OC)[C@H]2O[C@@](O)(C(=O)C(=O)N3CCCC[C@H]3C(=O)O[C@H](/C(C)=C/C3CC[C@@H](O)[C@H](OC)C3)[C@H](C)[C@@H](O)CC1=O)[C@H](C)C[C@@H]2OC (stereo not given in full)	21.9	65.9	15.3 µM	30.1 µM	15.8 µM	30.6	17.4	33.4 µM	16.5	35.6	15.4 µM	29.5 µM	14.6	39.7 µM	15.8	31.4	16.2	31.1 µM	17.3 µM	35.1 µM
Cc1cc2cc3cc(C)c(N)cc3[n+](C)c2cc1N	1.12	8.72	1.17 µM	4.7 µM	1.05 µM	7.5	3.31	8.1 µM	1.06	5.44	1.95 µM	8.27 µM	1.36	17.5 µM	1.59	8.39	0.518	4.21 µM	2.6 µM	11.5 µM
OCC1OC(n2cnc3c2NC=NC[C@H]3O)CC1O (stereo not given in full)		> 500	> 588 µM	500 µM and > 588 µM		468	> 588	500 µM and > 588 µM		281	> 588 µM	497 µM and > 588 µM	> 588	492 µM and > 588 µM		> 500	> 588	471 µM and > 588 µM	> 588 µM	500 µM and > 588 µM
Brc1ccccc1C=NC12CC3CC(CC(C3)C1)C2		> 100		> 100 µM		> 100		> 100 µM		> 100		> 100 µM		> 100 µM		> 100		> 100 µM		> 100 µM
Cc1c(-c2nnc(-c3ccc(F)cc3)o2)nnn1-c1ccnc2c(C(F)(F)F)cccc12	15.5	53.9	67.2 µM	> 100 µM	> 100 µM	> 100	> 100	> 100 µM	20	> 100	30.8 µM	> 100 µM	> 100	> 100 µM	29	> 100	24.4	78.4 µM	40.6 µM	> 100 µM
Cc1nn(-c2ccccc2)c2nc3c(nc12)C1=NCCN1C(c1ccc(Cl)cc1)N3 (stereo not given)	3.1	12.8	5.04 µM	14.4 µM	1.79 µM	3.49	2.3	4.46 µM	1.74	3.42	3.62 µM	13.2 µM	2.69	7.85 µM	1.81	4.95	3.26	8.31 µM	2.99 µM	8.9 µM
CC1OC(n2c3ccccc3c3c4c(c5c6ccccc6[nH]c5c32)C(=O)N(CCN2CCOCC2)C4=O)CC(O)C1O (stereo not given)	6.32	16.2	2.2 µM	9.87 µM	6.11 µM	14.5	10.6	22 µM	1.37	10.4	1.51 µM	6.74 µM	2.1	18.1 µM	6.63	18.9	1.52	8.26 µM	1.49 µM	6.53 µM
O=C(O)c1ccccc1-c1ccccc1C(=O)Nc1ccc2c(c1)[nH]c(=O)c1ccccc12		> 100		> 100 µM		> 100		> 100 µM		> 100		> 100 µM		> 100 µM		> 100		> 100 µM		> 100 µM
Cn1ccnc1C(=O)/C=C/c1ccc(CC(=O)Nc2ccc(F)cc2)cc1	15	> 25	8.57 µM	> 25 µM	6.99 µM	21.6	7.01	23.7 µM	8.34	> 25	5.74 µM	> 25 µM	2	> 25 µM	2.96	12.8	4.68	19 µM	1.37 µM	7.09 µM
NC1=CC(=O)c2nc3ccccc3c3ccnc1c23	0.766	5.73	0.937 µM	> 32.6 µM	2.37 µM	20	9.45	32.1 µM	7.85	> 67.4	3.15 µM	33 µM	11.6	> 100 µM	16.9	> 70.1	4.47	> 45.1 µM	7.49 µM	> 66.5 µM
CC(C)n1c(=O)n(C)c2cnc3cc(F)c(-c4ccc(OCCCN5CCCCC5)nc4)cc3c21	3.33	18.1	4.99 µM	24.4 µM	16.4 µM	36.8	14.4	30.2 µM	9.65	38.8	16.2 µM	76.8 µM	9.9	31.8 µM	11.4	27.6	4.99	28.3 µM	12.9 µM	37.9 µM
Cc1[nH]nc2ccc3nc(-c4ccc5[nH]ncc5c4)c4c(c3c12)CCCC4	1.34	12.5	1.89 µM	10.8 µM	1.68 µM	6.63	0.476	2.48 µM	1.14	8.22	0.367 µM	12.9 µM	2.13	> 100 µM	1.71	12.7	1.41	15.1 µM	1.19 µM	12.9 µM
Cc1cc(C)c2nc3nc(C)cc(C)c3c(N)c2c1	12.7	45.2	5.4 µM	24.7 µM	5.71 µM	29.8	6.89	21.7 µM	5.89	34.2	3.29 µM	49.4 µM	9.33	45.7 µM	5.17	28.6	5.26	25.7 µM	4.07 µM	17.4 µM
O=C(CN1C(=O)S/C(=C\C(Cl)=C\c2ccccc2)C1=O)NCCc1ccc(O)cc1	2.72	7.97	1.99 µM	4.4 µM	2.58 µM	14.5	2.64	7.74 µM	2.47	8.65	2.55 µM	8.06 µM	2.16	> 100 µM	2.09	6.52	3.34	15.7 µM	1.84 µM	3.54 µM
O=C(O)CP(=O)(O)O		> 100		> 100 µM		> 100		> 100 µM		> 100		> 100 µM		> 100 µM		> 100		> 100 µM		> 100 µM
CSc1nc(C)c(Br)c(=O)n1C1OC(COC(C)=O)C(OC(C)=O)C(OC(C)=O)C1OC(C)=O (stereo not given)		> 100	> 100 µM and 36 µM	> 100 µM	> 100 µM and 39 µM	> 100		> 100 µM		> 100	> 100 µM and 35.4 µM	> 100 µM		> 100 µM		> 100		72.3 µM and 43.9 µM	74 µM and 26.3 µM	> 100 µM and 48.5 µM
CCN(CC)CCCCNc1ncc2cc(-c3cc(OC)cc(OC)c3)c(NC(=O)NC(C)(C)C)nc2n1	4.72	28	2.57 µM	24.8 µM	1.78 µM	3.68	3.67	13 µM	10.8	29.3	3.92 µM	16.4 µM	3.96	66.1 µM	5.89	17	12.1	27.2 µM	5.42 µM	19.3 µM
